The text below walks through data of patent US10980781B2, “6-amino-2,4-dihydropyrano [2,3-c] pyrazoles and methods of use” (Purdue Research Foundation, priority 2017, dated 2021).

The target of this experiment is USP7 (Homo sapiens (Human), UniProt Q93009). As to the kind of experiment: USP7 inhibition assay with Ub-Rho 110 substrate (fluorescence progress curves). The conditions noted are these: for inhibition at 100 µM: 100 μM compound, 1 nM USP7, 200 nM Ub-Rho 110, 3% DMSO, triplicate; for IC50: 11 compound concentrations, two-fold serial dilutions. The format is biochemical. On the procedure:
Each assay was measured in triplicate. […] All reactions contained a final concentration of 3% DMSO. […] The percent inhibition was calculated using Equation (1).
The assay design was identical to as described above. The percent inhibition was calculated using Equation 1 and fit to Equation 2 by use of the Enzyme Kinetics Module of Sigma Plot (v13:Systat Software Inc.), to determine the IC50 value.

Chain of USP7 (Q93009 whole entry): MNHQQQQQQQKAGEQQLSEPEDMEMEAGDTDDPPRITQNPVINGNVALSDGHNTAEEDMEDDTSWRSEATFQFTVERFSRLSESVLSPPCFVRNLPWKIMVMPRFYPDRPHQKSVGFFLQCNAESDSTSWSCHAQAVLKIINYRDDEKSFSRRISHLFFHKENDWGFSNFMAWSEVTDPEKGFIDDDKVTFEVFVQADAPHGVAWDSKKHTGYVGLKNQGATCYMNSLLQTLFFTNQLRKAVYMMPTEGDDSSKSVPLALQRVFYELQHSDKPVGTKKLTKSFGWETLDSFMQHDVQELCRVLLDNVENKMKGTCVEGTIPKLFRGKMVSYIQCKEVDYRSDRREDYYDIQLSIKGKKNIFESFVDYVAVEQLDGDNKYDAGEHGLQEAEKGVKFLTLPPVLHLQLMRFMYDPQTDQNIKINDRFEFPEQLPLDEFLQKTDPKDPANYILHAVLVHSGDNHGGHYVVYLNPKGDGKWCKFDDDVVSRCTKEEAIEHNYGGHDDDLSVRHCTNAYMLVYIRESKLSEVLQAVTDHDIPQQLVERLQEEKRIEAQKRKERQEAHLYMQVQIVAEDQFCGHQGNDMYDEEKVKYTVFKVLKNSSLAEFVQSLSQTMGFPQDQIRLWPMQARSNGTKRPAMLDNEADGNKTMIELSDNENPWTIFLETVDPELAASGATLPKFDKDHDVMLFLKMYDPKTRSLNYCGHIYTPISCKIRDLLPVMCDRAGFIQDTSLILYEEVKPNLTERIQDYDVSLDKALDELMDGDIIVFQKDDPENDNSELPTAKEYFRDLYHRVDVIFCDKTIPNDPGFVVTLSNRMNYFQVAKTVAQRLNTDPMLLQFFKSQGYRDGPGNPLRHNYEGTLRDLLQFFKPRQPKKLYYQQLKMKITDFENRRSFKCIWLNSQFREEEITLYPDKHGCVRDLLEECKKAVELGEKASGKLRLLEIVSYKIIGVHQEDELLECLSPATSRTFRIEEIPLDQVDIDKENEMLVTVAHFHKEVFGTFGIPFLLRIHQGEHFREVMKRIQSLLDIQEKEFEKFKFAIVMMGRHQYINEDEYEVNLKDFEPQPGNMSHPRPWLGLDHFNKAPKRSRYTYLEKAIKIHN

What is called inhibition is the relative decrease from the control value, in per cent. Read a high inhibition as strong suppression. One may read the IC50 as the concentration that inhibits the measured activity by half. As for `COc1ccc(C2C(C#N)=C(N)Oc3n[nH]c(-c4ccn(C)c4)c32)cc1I` (racemic) [Compound 7m, 6-Amino-4-(3-iodo-4-methoxyphenyl)-3-(1-methyl-1H-pyrrol-3-yl)-2,4-dihydropyrano[2,3-c]pyrazole-5-carbonitrile], the inhibition at 100 µM stood at 89 ± 1%. Also, the concentration for half-maximal inhibition (IC50) (1 nM USP7, 200 nM Ub-Rho 110) was 1.31 ± 0.06 µM.

The compound `COc1ccc(C2C(C#N)=C(N)Oc3n[nH]c(-c4cccs4)c32)cc1Cl` (racemic) [Compound 6t, 6-Amino-4-(3-chloro-4-methoxyphenyl)-3-(thiophen-2-yl)-2,4-dihydropyrano [2,3-c]pyrazole-5-carbonitrile] showed an inhibition at 100 µM of 55 ± 3%. Also, half-maximal inhibition (1 nM USP7, 200 nM Ub-Rho 110) (IC50) required 7 ± 2 µM.

Take `N#CC1=C(N)Oc2n[nH]c(-c3cccs3)c2C1c1cccc(Br)c1` (centres unmarked) [Compound 6c, 6-Amino-4-(3-bromophenyl)-3-(thiophen-2-yl)-2,4-dihydropyrano[2,3-c]pyrazole-5-carbonitrile]: the inhibition at 100 µM was 0%.

Compound `N#CC1=C(N)Oc2n[nH]c(-c3cccs3)c2C1c1ccc([N+](=O)[O-])cc1` (racemic) [Compound 6g, 6-Amino-4-(4-nitrophenyl)-3-(thiophen-2-yl)-2,4-dihydropyrano[2,3-c]pyrazole-5-carbonitrile] had an inhibition at 100 µM of 57 ± 2%. Also, the IC50 (1 nM USP7, 200 nM Ub-Rho 110) stood at 33 ± 5 µM.

For `N#CC1=C(N)Oc2n[nH]c(-c3cccs3)c2C1c1ccc(N=[N+]=[N-])c(I)c1` (centres unmarked) [Compound 6p, 6-Amino-4-(4-azido-3-iodophenyl)-3-(thiophen-2-yl)-2,4-dihydropyrano[2,3-c]pyrazole-5-carbonitrile], testing at 100 µM gave an inhibition of 62 ± 20%.

Turning to `COc1ccc(C2C(C#N)=C(N)Oc3n[nH]c(-c4cccnc4)c32)cc1Br` (racemic) [Compound 7e, 6-Amino-4-(3-bromo-4-methoxyphenyl)-3-(pyridin-3-yl)-2,4-dihydropyrano [2,3-c]pyrazole-5-carbonitrile], 100 µM produced 82 ± 9% inhibition. This compound also returned an IC50 (1 nM USP7, 200 nM Ub-Rho 110) of 24 ± 5 µM.

In turn, `N#CC1=C(N)Oc2n[nH]c(-c3cccs3)c2C1c1ccc(O)c(C(F)(F)F)c1` (racemic) [Compound 6q, 6-Amino-4-(4-hydroxy-3-(trifluoromethyl)phenyl)-3-(thiophen-2-yl)-2,4-dihydropyrano[2,3-c]pyrazole-5-carbonitrile] yielded an inhibition at 100 µM of 92 ± 2%. Where the note is “1 nM USP7, 200 nM Ub-Rho 110”, this compound yielded a half-maximal inhibitory concentration (IC50) of 11 ± 0.7 µM.

In the case of `COc1ccc(C2C(C#N)=C(N)Oc3n[nH]c(-c4ccccn4)c32)cc1I` (racemic) [Compound 7d, 6-Amino-4-(3-iodo-4-methoxyphenyl)-3-(pyridin-2-yl)-2,4-dihydropyrano [2,3-c]pyrazole-5-carbonitrile], where the note is “1 nM USP7, 200 nM Ub-Rho 110”, the concentration for half-maximal inhibition (IC50) amounted to 4.4 µM. The same compound displayed an inhibition at 150 µM (tested at 150 μM compound, 1 nM USP7, 200 nM Ub-Rho 110) of 89 ± 2%.

In turn, `COc1ccc(C2C(C#N)=C(N)Oc3c2c(-c2cccs2)nn3C)cc1I` (centres unmarked) [Compound 9b, 6-Amino-4-(3-iodo-4-methoxyphenyl)-1-methyl-3-(thiophen-2-yl)-1,4-dihydropyrano[2,3-c]pyrazole-5-carbonitrile] gave an inhibition at 100 µM of 0%.

Regarding `COc1cc(C)c(C2C(C#N)=C(N)Oc3n[nH]c(-c4cccs4)c32)cc1C(C)C` (racemic) [Compound 6r, 6-Amino-4-(5-isopropyl-4-methoxy-2-methylphenyl)-3-(thiophen-2-yl)-2,4-dihydropyrano[2,3-c]pyrazole-5-carbonitrile], the inhibition at 100 µM was found to be 95 ± 4%. The compound also showed an IC50 (1 nM USP7, 200 nM Ub-Rho 110) of 1.4 ± 0.2 µM.

Compound `COc1ccc(C2C(C#N)=C(N)Oc3n[nH]c(-c4ccsc4)c32)cc1Br` (racemic) [Compound 7a, 6-Amino-4-(3-bromo-4-methoxyphenyl)-3-(thiophen-3-yl)-2,4-dihydropyrano [2,3-c]pyrazole-5-carbonitrile] returned an inhibition at 100 µM of 72 ± 4%. The compound also gave an IC50 (1 nM USP7, 200 nM Ub-Rho 110) of 8.1 ± 1 µM.

In turn, `COc1ccc(C2C(C#N)=C(N)Oc3n[nH]c(-c4cccs4)c32)cc1Br` (centres unmarked) [Compound 6a, 6-Amino-4-(3-bromo-4-methoxyphenyl)-3-(thiophen-2-yl)-2,4-dihydropyrano [2,3-c]pyrazole-5-carbonitrile] had an inhibition at 100 µM of 72 ± 3%.
